What was measured:
[1] = molecular target: T1, Human NAMPT (Homo sapiens, UniProt P43490); test: in vitro NAMPT coupled-enzyme assay (NADH at OD340 nm); assay type: biochemical; settings: relative reaction rate normalized by the control reaction run prior to compound addition; vehicle 0.98
T1 construct: made in house; host or cells: E. coli
Experimental: FIGS. 7A-7C. […] (FIG. 7A) P7C3-A20 was incubated at indicated concentrations in a reaction coupled with three enzymes; NAMPT, NMNAT, and ADH (Experimental Procedures). NAMPT activity was recorded for the indicated period of time at OD340 nm by measuring NADH appearance, leading to the indicated concentration-time plot. […] (FIG. 7B) Analysis of the activities of thirty P7C3 analogs was performed to assess their effects on NAMPT enzymatic activity. The reaction rate was calculated as the slope of the concentration-time curve. Relative reaction rate was normalized by the control reaction run prior to compound addition. Data represents the mean of experimental duplicates. Scatter graphs were plotted to compare the ability of compounds to activate NAMPT relative to their ability to compete away P7C3-S326 crosslinking (top scatter plot), ability to protect cells from doxorubicin-mediated toxicity (middle scatter plot), or ability to facilitate NAD restoration in doxorubicin-treated cells (bottom scatter plot). […] Data are expressed as mean±SD of duplicate independent assays.
The enzymatic activity of recombinant NAMPT was monitored in a coupled assay wherein nicotinamide conversion to NMN was followed by sequential production of NAD (via the NMNAT enzyme) and NADH (via alcohol dehydrogenase). To minimize variation, a control reaction was run in each assay prior to compound addition.
Briefly, NAMPT first converted nicotinamide to NMN, which was followed by sequential production of NAD via nicotinamide mononucleotide adenylyl-transferase (NMNAT). NAD was then reduced to NADH by alcohol dehydrogenase (Sigma) using alcohol as the substrate. The resulting NADH was monitored by OD340 nm. […] 10 mM stocks of P7C3 analogs in DMSO were further diluted in ethanol prior to applying to the reaction. To minimize variation, a control reaction was run in each assay prior to compound addition.

[2] = tested on: hippocampal neurogenesis (Dentate Gyrus); test: in vivo neurogenesis assay (BrdU+ cells in dentate gyrus); design: species or system mice; settings: living mice; vehicle (DMSO) 7.3
How it was run: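 New hippocampal cells were tracked by daily BrdU injections and anti-BrdU staining of brain sections. Adult mice (two per pool of ten compounds) got week-long intracerebroventricular infusion by mini-pump, dosed for mid-nanomolar exposure.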

[3] = molecular target: T2, p70 (NAMPT) (Homo sapiens, UniProt P43490); test: binding competition for photo-crosslinking of P7C3-S326 to p70 in H2122 cells; settings: 0.3 μM P7C3-S326 plus 5 μM competitor, p70 band intensity, P7C3-S326 alone compared with plus competitor, vehicle 1.0
T2 construct: endogenous in cells; host or cells: H2122 lung cancer cells
T2 sequence (P43490 whole entry): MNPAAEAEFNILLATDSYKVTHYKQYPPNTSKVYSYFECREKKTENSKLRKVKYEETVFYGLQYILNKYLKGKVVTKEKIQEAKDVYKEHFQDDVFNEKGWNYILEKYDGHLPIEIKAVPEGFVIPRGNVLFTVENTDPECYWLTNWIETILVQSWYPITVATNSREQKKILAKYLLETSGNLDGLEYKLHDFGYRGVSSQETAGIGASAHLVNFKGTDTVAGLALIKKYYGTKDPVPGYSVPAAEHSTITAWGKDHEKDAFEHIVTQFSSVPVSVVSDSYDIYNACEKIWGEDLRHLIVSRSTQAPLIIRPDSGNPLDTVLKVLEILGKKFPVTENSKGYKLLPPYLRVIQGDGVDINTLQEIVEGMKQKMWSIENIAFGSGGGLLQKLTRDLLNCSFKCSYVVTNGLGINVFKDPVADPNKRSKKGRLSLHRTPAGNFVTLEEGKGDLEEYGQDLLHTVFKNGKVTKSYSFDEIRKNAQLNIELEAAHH
How it was run: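 Competition for photo-crosslinking: P7C3 analogs (5 uM) were added alongside the 0.3 μM P7C3-S326 probe to H2122 cells for 2 hours before 15 minutes of 306 nm UV irradiation. In-gel fluorescence of the p70 band after click labeling was normalized to DMSO.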

T1 sequence (P43490 whole entry): as above

Row | Compound | NAMPT activation [1] | Neurogenesis # BrdU+ Cells (X10E06)/mm3 Dentate Gyrus [2] | Binding competition [3]
1 | COc1cccc(NCC(=O)Cn2c3ccc(Br)cc3c3cc(Br)ccc32)c1 [S3] | 1.06 | 9.2 (X10E06)/mm3 | 2.3
2 | COc1cccc(NC(SC)C(=O)Cn2c3ccc(Br)cc3c3cc(Br)ccc32)c1 (stereo not shown) [S4] | 1.01 | 11.7 (X10E06)/mm3 | 1.4
3 | COc1cccc(N(C)CC(F)Cn2c3ccc(Br)cc3c3cc(Br)ccc32)c1 (stereo not shown) [S11] | 1.21 | 12.8 (X10E06)/mm3 | 2.0
4 | COc1cccc(N2CC(Cn3c4ccc(Br)cc4c4cc(Br)ccc43)OC2=O)c1 (stereo not shown) [S12] | 1.24 | 10.8 (X10E06)/mm3 | 2.4
5 | COc1cccc(NCC(Cn2c3ccc(Br)cc3c3cc(Br)ccc32)OC)c1 (stereo not shown) [S13] | 1.21 | 11.6 (X10E06)/mm3 | 1.7
6 | Brc1ccc2c(c1)c1cc(Br)ccc1n2CCCNc1ccccc1 [S33] | 1.12 | 11.6 (X10E06)/mm3 | 2.8
7 | O=S(=O)(CC(F)Cn1c2ccc(Br)cc2c2cc(Br)ccc21)c1ccccc1 (stereo not shown) [S53] | 1.05 | 17.1 (X10E06)/mm3 | 1.4
8 | FC(F)(COc1ccccc1)Cn1c2ccc(Br)cc2c2cc(Br)ccc21 [S56] | 1.06 | 8.4 (X10E06)/mm3 | 1.0
9 | COc1cccc(NCC(F)(F)Cn2c3ccc(Br)cc3c3cc(Br)ccc32)c1 [S59] | 1.02 | 10.7 (X10E06)/mm3 | 1.2
10 | COCCOCCOc1ccc(NCC(F)Cn2c3ccc(Br)cc3c3cc(Br)ccc32)cc1 (stereo not shown) [S66] | 1.21 | 9.7 (X10E06)/mm3 | 3.5
11 | COc1cccc(S(=O)(=O)CC(F)Cn2c3ccc(Br)cc3c3cc(Br)ccc32)c1 (stereo not shown) [S81] | 0.96 | 12.6 (X10E06)/mm3 | 1.2
12 | COc1ccc(S(=O)(=O)CC(F)Cn2c3ccc(Br)cc3c3cc(Br)ccc32)cc1 (stereo not shown) [S83] | 1.01 | 12.5 (X10E06)/mm3 | 1.0
13 | O=S(=O)(CC(F)Cn1c2ccc(Br)cc2c2cc(Br)ccc21)c1cccc(O)c1 (stereo not shown) [S101] | 1.12 | 9.9 (X10E06)/mm3 | 2.4
14 | [O-][n+]1cccc2c1c1cc(Br)ccc1n2CC(O)COc1ccccc1 (stereo not shown) [S198] |  | 11.0 (X10E06)/mm3 | 5.1
15 | CCOC(=O)C1=C[C@]2(CC)CCCN3CCc4c(n1c1ccccc41)[C@@H]32 [S199] |  | 13.3 (X10E06)/mm3 | 1.1
16 | CCC(C)N(C)C(=O)c1cc2ccccc2c(-c2ccccc2Cl)n1 (stereo not shown) [S200, PK11195, reference compound] |  | 11.1 (X10E06)/mm3 | 1.3
17 | OCc1cc2c(cn1)[nH]c1ccc(Br)cc12 [S204] |  | 14.2 (X10E06)/mm3 | 2.3
18 | CCOC(=O)c1cc2c(cn1)[nH]c1ccc(Br)cc12 [S205] |  | 14.6 (X10E06)/mm3 | 2.5
19 | O=C(O)c1cc2c(cn1)[nH]c1ccc(Br)cc12 [S206] |  | 14.8 (X10E06)/mm3 | 1.4
20 | NC(Cc1c[nH]c2ccc(Br)cc12)C(=O)O (stereo not shown) [S207] |  | 16.2 (X10E06)/mm3 | 1.1
21 | COc1ccc2[nH]c3ccc(Br)cc3c2c1 [S209] |  | 15.0 (X10E06)/mm3 | 3.7
22 | O=C(O)CN1c2ccccc2CCc2ccccc21 [S210] |  | 10.7 (X10E06)/mm3 | 1.1
23 | CC(C(=O)O)n1c2ccc(Br)cc2c2cc(Br)ccc21 (stereo not shown) [S211] |  | 11.5 (X10E06)/mm3 | 1.2
24 | CNC(=O)Cn1c2ccc(Br)cc2c2cc(Br)ccc21 [S214] |  | 9.9 (X10E06)/mm3 | 1.7

Source: patent US9243281B2, “Neuroprotective chemicals and methods for identifying and using same” (Board of Regents of The University of Texas System, priority 2013, dated 2016)
